Read-outs that look alike come from different tables or passages of the source.
What was measured:
Assay type in all cases: cell-based, human
[1] = test system: Bcl-xL; assay: Western blot of Bcl-xL phosphorylation; details: HT29 cells, 3, 6 and 24 h
Method: Western blotting. Floating and adherent cells were harvested and pellets were resuspended in RIPA buffer (50 mM Tris/HCl 7.4, 250 mM NaCl, 0,5% Igepal CA630, 5 mM EDTA, 1 mM PMSF, 10 μg/ml leupeptin, 50 mM NaF, 0.1 mM Na3VO4) or Deoxycholate buffer (10 mM phosphate buffer 7.4, […] NaCl, 0.5% Deoxycholate, 1% Igepal, 0.1% SDS, 1 mM PMSF). Protein concentration was determined with BCA Protein Assay Kit (Pierce) for RIPA extracts or Bradford assay (BioRad) for Deoxycholate extracts. Total protein (20-30 μg/lane) were separated by SDS-PAGE, transferred to PVDF membranes (Gellman), and probed with antibodies against Bcl-xL (Transduction); Bax (Santa Cruz); JNK (Santa Cruz); phospho-JNK (Cell Signaling); pRb (Pharmingen); pRb-phospho Ser780 (Cell Signalling); p130 (Santa Cruz); p107 (Santa Cruz); Cdk2 (Santa Cruz); p27^Kip1 (Santa Cruz); p21^Cip1 (Santa Cruz); actin (Sigma); or tubulin (ICN) and developed with ECL system (AmershamPharmacia biotech)
FIG. 6. (A) JNK is activated after N13-13-10C treatment. HT29 cells were treated for 1, 3, 6 and 24 h with N13-13-10C (35 μM), harvested and immunoblotted to assess activation of SAP/JNK MAP kinase. Western blot was first probed with the JNK-phosphor specific antibody, was stripped and reprobed with the pan-JNK antibody and actin to normalize total protein level. […]

[2] = test system: T98 g cells; assay: Cell cycle DNA analysis in synchronized cells; details: for Cells retained in G1: 19 h after serum re-addition, 100 μM
Method: Experimentally this finding was substantiated analysing the compounds in a cellular model with synchronized cells. T98 g cells were arrested in G1 phase (82%) by serum starvation in MCDB 105 medium after 72 h. Upon 10% serum re-addition, cells were allowed to re-enter into the cell cycle. More than 50% of the cells were in the S-phase, and only 20% remained in G1 after 19 h of FCS introduction. Addition of N10-13-10C or N13-13-10C to the cultures at the moment of serum addition restrained S-phase entry (FIG. 7. A). Around 40% of the cells were retained in G1. In conclusions both N10-13-10C and N13-13-10C were able to induce a G1 arrest either in asynchronous or in synchronized cell cultures, as determined by cell cycle DNA analysis. In comparison, Olomucine which is a cdk2 inhibitor, retained 80% of the cells in G1. The topoisomerase II inhibitor etoposide treated cells were arrested in S phase of the cell cycle (85% of the cell population).
DNA analysis. Floating and adherent cells treated with the compounds were collected by trypsinization and washed twice with PBS. The cells were permeabilized overnight at −20° C. with ice-cold ethanol 70%. The cells were washed in PBS, adjusted at 0.5×10^6 cells/ml and incubated with 20 μg/ml Propidium Iodide and 2 μl/ml RNase DNase-free for 30 min at 30° C. Cells were maintained overnight at 4° C. and then analysed by flow cytometry. Flow cytometric experiments were carried out using an Epics XL flow cytometer (Coulter Corporation, Hialeah, Fla.). The instrumet was set up with the standard configuration: excitation of the sample was done using an standard 488 nm air-cooled argon-ion laser at 15 mW power. Forward scatter (FSC), side scatter (SSC) and red (620 nm) fluorescence for PI were adquired. Optical alignement was based on optimized signal from […] fluorescent beads (Immunocheck, Epics Division). Time was used as a control of the stability of the instrument. Red fluorescence was projected on a 1024 monoparametrical histogram. Aggregates were excluded gating single cells by their area vs. peak fluorescence signal. DNA analysis (Ploidy analysis) on single fluorescence histograms was done using Multicycle software (Phoenix Flow Systems, San Diego, Calif.).
(§1) FIG. 7. […] (A) T98 g cells were synchronized and reinitiated for 19 h with FCS alone or in combination with N10-13-10C (100 μM), N13-13-10C (100 μM), Olomucine (100 μM), etoposide (5 μM) or Taxol (30 nM). Cell cycle profile was assessed by propidium iodide DNA staining and analyzed by flow cytometry. The fraction of cells with G1, S, G2/M DNA content are shown as % of total cell population. (B. and C.) Synchronized T98 g cells were reinitiated with FCS alone or in combination with serial dilutions of N4-13-10C, N5-13-10C, N10-13-10C, N13-13-10C, Olomucine or etoposide for 19 h and labeled with BrdU during the last 2 h. BrdU incorporation was assessed by ELISA using anti-BrdU antibodies. An arbitrary value of 100% was assigned to the densiometric rate of DNA synthesis by untreated cultures and all other values are depicted relative to that reference. The values are means of three (n=3) replicates.

[3] = test system: T98g glioblastoma cells; assay: BrdU incorporation assay (DNA synthesis); details: synchronized T98 g, 17 h + 2 h BrdU, read-out: IC50 BrdU incorporation (DNA synthesis inhibition)
Method: To confirm the G1 arrest of the cell cycle, we analyzed the DNA synthesis by an BrdU incorporation assay. Serial dilutions of the compounds N4-13-10C, N5-13-10C, N10-13-10C, N13-13-10C, etoposide or olomucine were assayed on synchronized T98 g cells as described in FIG. 7. A. Arrested cells were induced to cell cycle re-entry by re-addition of serum alone or with test compounds for 17 h, followed by 2 h in combination with 10 μM BrdU.
BrdU assay. T98g glioblastoma cells at 5000 cells/well in microtiter plates were arrested in G1-phase for 72 h by serum deprivation in MCDB 105 medium. By serum (10%) readdition, cells were treated with serial dilutions of the compounds for 17 h, and followed in combination 10 μM BrdU for […]. BrdU incorporation, i.e. DNA synthesis, was quantified with Cell Proliferation ELISA system, vs. 2 (AmershamPharmacia biotech) as described by the manufacturer.
as §1

## CC(=O)O[C@H]1C(=O)[C@@]2(C)[C@H]([C@H](OC(=O)c3ccccc3)[C@]3(O)C[C@H](OC(=O)[C@H](O)[C@@H](NC(=O)c4ccccc4)c4ccccc4)C(C)=C1C3(C)C)[C@]1(OC(C)=O)CO[C@@H]1C[C@@H]2O [Taxol, reference compound]
[1]
  Bcl-xL phosphorylation (slower migrating band): phosphorylated bcl-xL
[2]; 19 h of treatment, Taxol 30 nM
  Effect on cell cycle profile: does not effect cell cycle profile

## Cn1cnc2c(NCc3ccccc3)nc(NCCO)nc21 [Olomucine]
[3]
  IC50: 50 µM
[2]
  Cells retained in G1: 80%
[2]; listed as olomucine
  Cells retained in G1: 82%

## COc1cc([C@@H]2c3cc4c(cc3[C@@H](O[C@@H]3O[C@@H]5CO[C@@H](C)O[C@H]5[C@H](O)[C@H]3O)[C@H]3COC(=O)[C@H]23)OCO4)cc(OC)c1O [etoposide, reference compound]
[3]; Homo sapiens, T98G
  IC50: 200 µM
[2]; 19 h, etoposide 5 μM
  Cells arrested in S phase: 85%
